Data set [1] relates to Linezolid Resistant Streptococcus pneumoniae. In words: MIC, Linezolid Resistant Streptococcus pneumoniae. The data set is classed as cell-based. How it is done: (§1) The following results were obtained on a standard in-vitro test system. The activity is described in terms of the minimum inhibitory concentration (MIC) determined by the agar-dilution technique with an inoculum size of 10^4 CFU/spot. Typically, compounds are active in the range 0.01 to 256 μg/ml.
(§2) Streptococci and enterococci were tested on agar supplemented with 5% defibrinated horse blood, an inoculum of 10^4 CFU/spot and an incubation temperature of 37° C. in an atmosphere of 5% carbon dioxide for 48 hours—blood is required for the growth of some of the test organisms. Fastidious Gram negative organisms were tested in Mueller-Hinton broth, supplemented with hemin and NAD, grown aerobically for 24 hours at 37° C., and with an innoculum of 5×10^4 CFU/well.

A short description of data set [2]: physchem. To be noted: pH 7.4, aqueous buffer, thermodynamic from solid. The source says: It will be understood that parameters such as solubility may be measured by any suitable technique known in the art.
In data set [3] the test system is Staphylococcus aureus MSQS. In words: MIC, agar-dilution, Staphylococcus aureus MSQS. The data set is classed as cell-based. To be noted: Staphylococcus aureus MSQS (methicillin sensitive and quinolone sensitive), 10^4 CFU/spot, 37° C., 24 hours. The method, then: as §1
(§3) Staphylococci were tested on agar, using an inoculum of 10^4 CFU/spot and an incubation temperature of 37° C. for 24 hours—standard test conditions for the expression of methicillin resistance.

For data set [4], the system named is Moraxella catarrhalis. In words: MIC, Moraxella catarrhalis. The data set is classed as cell-based. Conditions: Mueller-Hinton broth with hemin and NAD, 24 hours, 37° C. How it is done:
as §1, §2

Data set [5] has as its system Streptococcus pneumoniae. In words: MIC, agar-dilution, Streptococcus pneumoniae. The data set is classed as cell-based. To be noted: agar with 5% defibrinated horse blood, 37° C., 5% carbon dioxide, 48 hours. The method, then:
as §1, §2

Data set [6] has as its system Staphylococcus aureus MRQR. Kind of data set: MIC, agar-dilution, Staphylococcus aureus MRQR. Conditions: Staphylococcus aureus MRQR (methicillin resistant and quinolone resistant), 10^4 CFU/spot, 37° C., 24 hours. It is filed as cell-based. The method, then: as §1, §3
The test system of data set [7] is Haemophilus influenzae. In words: MIC, Haemophilus influenzae. The data set is classed as cell-based. Conditions: Mueller-Hinton broth with hemin and NAD, 24 hours, 37° C. The method, then:
as §1, §2

The target in data set [8] is T1, MAO-A (Homo sapiens, UniProt P21397).
T1 construct: made in house; host or cells: yeast
T1 sequence (P21397 1-527): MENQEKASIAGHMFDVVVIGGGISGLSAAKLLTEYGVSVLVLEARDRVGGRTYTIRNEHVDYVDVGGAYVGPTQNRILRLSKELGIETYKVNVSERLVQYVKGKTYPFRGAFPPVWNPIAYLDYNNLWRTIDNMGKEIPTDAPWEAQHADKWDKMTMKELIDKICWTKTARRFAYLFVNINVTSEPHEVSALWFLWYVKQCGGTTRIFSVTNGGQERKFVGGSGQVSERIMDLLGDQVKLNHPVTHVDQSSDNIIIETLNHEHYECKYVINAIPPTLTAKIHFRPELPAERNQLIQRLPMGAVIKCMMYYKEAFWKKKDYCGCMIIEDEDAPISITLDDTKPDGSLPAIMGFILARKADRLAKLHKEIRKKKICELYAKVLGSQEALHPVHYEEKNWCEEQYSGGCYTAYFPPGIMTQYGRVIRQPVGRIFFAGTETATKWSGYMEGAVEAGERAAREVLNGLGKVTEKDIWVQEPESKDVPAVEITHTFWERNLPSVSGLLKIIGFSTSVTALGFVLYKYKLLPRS
In words: MAO-A inhibition, standard in-vitro assay. The data set is classed as biochemical. Conditions: human liver enzyme expressed in yeast. How it is done:
Inhibition of mono-amine oxidase (MAO) is a known potential side effect of oxazolidinone antibiotics (see for example WO 03/072575).
The activity of the compounds of the invention against MAO-A was tested using a standard in-vitro assay based on human liver enzyme expressed in yeast as described in Biochem. Biophys. Res. Commun. 1991, 181, 1084-1088. Compounds of the invention typically give Ki values of >5 μM when measured in such an assay as above.

19 molecules from patent publication US20080021012A1, “3-[4-{6-Substituted Alkanoyl Pyridin-3-Yl}-3-Phenyl]-5-(1H-1,2,3-Triazol-1-Ylmethyl)-1,3-Oxazolidin-2-Ones As Antibacterial Agents” (ASTRAZENECA AB, priority 2004, published 2008) can be followed below.

Molecules are shown by their SMILES. In brackets after ≈: the same amount, converted by molar mass. Where a name gives a salt, the structure may show the parent alone.

In general, melting point refers to the temperature of the solid-liquid transition. Usually solubility stands for the dissolved amount per volume that the medium holds. Higher therefore signals much dissolved substance. As usually defined, the Ki is a measure of affinity in units of concentration, obtained from inhibition or displacement. Lower therefore signals tighter binding. For orientation: solubility (thermodynamic) means the concentration in solution at equilibrium with solid.

Take `O=C(Cn1ccnc1)c1ccc(-c2ccc(N3C[C@H](Cn4ccnn4)OC3=O)cc2F)cn1` (as salt: hydrochloride) [Example 1, (5R)-3-{3-Fluoro-4-[6-(1H-imidazol-1-ylacetyl)pyridin-3-yl]phenyl}-5-(1H-1,2,3-triazol-1-ylmethyl)-1,3-oxazolidin-2-one]: the melting point was > 230 °C (dec.).
On the same count and under the same terms, with `Cc1nccn1CC(=O)c1ccc(-c2ccc(N3C[C@H](Cn4ccnn4)OC3=O)cc2F)cn1` (as salt: hydrochloride) [Example 4] the figure was > 240 °C (dec.).
Consider `Cc1cn(CC(=O)c2ccc(-c3ccc(N4C[C@H](Cn5ccnn5)OC4=O)cc3F)cn2)cn1` (as salt: hydrochloride) [Example 5, (5R)-3-(3-Fluoro-4-{6-[(4-methyl-1H-imidazol-1-yl)acetyl]pyridin-3-yl}phenyl)-5-(1H-1,2,3-triazol-1-ylmethyl)-1,3oxazolidin-2-one], for which the melting point is > 217 °C (dec.).
On to `O=C(CC1CCNCC1)c1ccc(-c2ccc(N3C[C@H](Cn4ccnn4)OC3=O)cc2F)cn1` (as salt: hydrochloride) [Example 6, (5R)-3-{3-Fluoro-4-[6(piperidin-4-ylacetyl)pyridin-3-yl]phenyl}-5-(1H-1,2,3-triazol-1-ylmethyl)-1,3-oxazolidin-2-one], for which the melting point was > 196 °C (dec.).
Take `O=C(c1ccc(-c2ccc(N3C[C@H](Cn4ccnn4)OC3=O)cc2F)cn1)C1CCNCC1` (as salt: hydrochloride) [Example 8, (5R)-3-{3-Fluoro-4-[6-(piperidin-4-ylcarbonyl)pyridin-3-yl]phenyl}-5-(1H-1,2,3-triazol-1-ylmethyl)-1,3-oxazolidin-2-one]: the melting point is > 275 °C (dec.).
On the same count and under the same terms, with `O=C(c1ccc(-c2ccc(N3C[C@H](Cn4ccnn4)OC3=O)cc2F)cn1)C1CNC1` (as salt: hydrochloride) [Example 9, (5R)-3-{4-[6-(Azetidin-3-ylcarbonyl)pyridin-3-yl]-3-fluorophenyl}-5-(1H-1,2,3-triazol-1-ylmethyl)-1,3-oxazolidin-2-one] the figure was > 90 °C (dec.).
In the case of `O=C(Cn1ccnc1)c1ccc(-c2ccc(N3C[C@H](Cn4ccnn4)OC3=O)cc2F)cn1` [Example 1, (5R)-3-{3-Fluoro-4-[6-(1H-imidazol-1-ylacetyl)pyridin-3-yl]phenyl}-5-(1H-1,2,3-triazol-1-ylmethyl)-1,3-oxazolidin-2-one], the MIC worked out at 0.5 µg/mL (≈ 1.12 µM) in data set [1]; 0.25 µg/mL (≈ 0.559 µM) in [3]; 0.5 µg/mL (≈ 1.12 µM) in data set [4]; 0.13 µg/mL (≈ 0.291 µM) in [5]; 0.25 µg/mL (≈ 0.559 µM) in data set [6]; 2 µg/mL (≈ 4.47 µM) in [7]. The molecule further came in with a solubility in data set [2] of 1450 µM (≈ 650 µg/mL). Moreover, the inhibition constant Ki in [8] was above 5 µM.
In [8], `O=C(CCCN1CCOCC1)c1ccc(-c2ccc(N3C[C@H](Cn4ccnn4)OC3=O)cc2F)cn1` [Example 2, (5R)-3-{3-Fluoro-4-[6-(4-morpholin-4-ylbutanoyl)pyridin-3-yl]phenyl}-5-(1H-1,2,3-triazol-1-ylmethyl)-1,3-oxazolidin-2-one] had a Ki of 15 µM. In other words, the double-digit micromolar range.
Molecule `CC(C)(C)O/N=C/c1ccc(-c2ccc(N3C[C@H](Cn4ccnn4)OC3=O)cc2F)cn1` [Example 3] returned a melting point of 192 °C. In addition, the inhibition constant (Ki) in data set [8] was 6.4 µM.
Turning to `CCCc1nccn1CC(=O)c1ccc(-c2ccc(N3C[C@H](Cn4ccnn4)OC3=O)cc2F)cn1` [Example 11], the melting point came to 81 °C.
As for `CC(C)c1nccn1CC(=O)c1ccc(-c2ccc(N3C[C@H](Cn4ccnn4)OC3=O)cc2F)cn1` [Example 12], the melting point fell in the range of 82 to 83 °C.
In turn, `Cc1cn(CC(=O)c2ccc(-c3ccc(N4C[C@H](Cn5ccnn5)OC4=O)cc3F)cn2)c(C)n1` [Example 13, (5R)-3-(4-{6-[(2,4-Dimethyl-1H-imidazol-1-yl)acetyl]pyridin-3-yl}-3-fluorophenyl)-5-(1H-1,2,3-triazol-1-ylmethyl)-1,3-oxazolidin-2-one] returned a melting point of 78 °C.
Still for that read-out and setting: with `CCc1nccn1CC(=O)c1ccc(-c2ccc(N3C[C@H](Cn4ccnn4)OC3=O)cc2F)cn1` [Example 14, (5R)-3-(4-{6-[(2-Ethyl-1H-imidazol-1-yl)acetyl]pyridin-3-yl}-3-fluorophenyl)-5-(1H-1,2,3-triazol-1-ylmethyl)-1,3-oxazolidin-2-one] the figure was 77 to 79 °C.
The same measure, in the same setting: under `COCc1nccn1CC(=O)c1ccc(-c2ccc(N3C[C@H](Cn4ccnn4)OC3=O)cc2F)cn1` [Example 15, (5R)-3-[3-Fluoro-4-(6-{[2-(methoxymethyl)-1H-imidazol-1-yl]acetyl}pyridin-3-yl)phenyl]-5-(1H-1,2,3-triazol-1-ylmethyl)-1,3-oxazolidin-2-one] stands 78 to 80 °C.
For `CC(=O)c1ccc(-c2ccc(N3C[C@H](Cn4ccnn4)OC3=O)cc2F)cn1` [Ref Example 1, (5R)-3-[4-(6-Acetylpyridin-3-yl)-3-fluorophenyl]-5-(1H-1,2,3-triazol-1-ylmethyl)-1,3-oxazolidin-2-one], the melting point is > 210 °C (dec.). Besides, the inhibitory constant (Ki) in data set [8] was 0.72 µM.
Turning to `O=Cc1ccc(-c2ccc(N3C[C@H](Cn4ccnn4)OC3=O)cc2F)cn1` [Ref Example 2, 5-{2-Fluoro4-[(5R)-2-oxo-5-(1H-1,2,3-triazol-1-ylmethyl)-1,3-oxazolidin-3-yl]phenyl}pyridine-2-carbaldehyde], the melting point is > 180 °C (dec.). This molecule also yielded an inhibition constant (Ki) in [8] of 0.7 µM.
For `O=C1O[C@@H](Cn2ccnn2)CN1c1ccc(-c2ccc(/C=N/O)nc2)c(F)c1` [Ref Example 3, 5-{2-Fluoro-4-[(5R)-2-oxo-5-(1H-1,2,3-triazol-1-ylmethyl)-1,3-oxazolidin-3-yl]phenyl}pyridine-2-carbaldehyde oxime], the melting point was > 230 °C (dec.). This molecule also came in with a Ki in [8] below 0.3 µM.
In turn, `CC(=O)NC[C@H]1CN(c2ccc(-c3ccc(-c4nnn(C)n4)nc3)c(F)c2)C(=O)O1` [Reference Example 4] returned a thermodynamic solubility in data set [2] of 35.1 µM (≈ 14.4 µg/mL).
In data set [2], `Cn1nnc(-c2ccc(-c3ccc(N4C[C@H](Cn5ccnn5)OC4=O)cc3F)cn2)n1` [Reference Example 5, (5R)-3-(3-Fluoro-4-(6-(2-methyl-2H-tetrazol-5-yl)pyrid-3-yl)phenyl)-5-(1H-1,2,3-triazol-1-ylmethyl)-1,3-oxazolidin-2-one] displayed a solubility (thermodynamic) below 7.1 µM.
